Test results reported in patent US9206196B1, “Derivatives of benzoxazino quinoline, benzoxazino isoquinoline and processes for their preparation” (Council of Scientific & Industrial Research, priority 2014, dated 2015).
pIC50: −log10 of the molar value.

Test system: Plasmodium falciparum (3D7)
Test: Anti-malarial screen, parasite growth by SybrGreen staining
Format: cell-based
Conditions: dose response assay, test molecules from 10 μM to 1 nM, 60 hours incubation, SybrGreen read out
Procedure: Plasmodium falciparum (3D7; Malaria Research and Reference Reagent Resource Center ID NO: MRA-102) is cultured in the laboratory as per standard protocols. Briefly, P. falciparum is cultured using 2% hematocrit washed RBCs, separated from freshly collected human blood, in Roswell Park Memorial Institute (RPMI) medium containing glutamine, sodium bicarbonate and antibiotics. Parasites are synchronized using either 5% sorbitol treatment or by enriching late stage parasites using a 70% percol cushion. 200 μls of the diluted parasite culture at 2% parasitemia and 2% hematocrit, is added to each well in a 96 well plate pre-seeded with the compound of interest at the required concentration. In general, compounds being screened for the first time are tested at a single concentration of 10 μM to detect any effect they may have on parasite growth. The master stocks and dilutions of the compounds are prepared in cell culture grade DMSO. NOTE: DMSO only treatment control is done and the results are used for normalizing the data obtained from compound treatment. All compounds are plated in triplicates. Each 96 well plate also includes negative control (compound untreated culture) and positive control (standard anti-malarial treated culture). Standard anti-malarials used are chloroquine, artemisinine and atovaquone, each at 1 μM concentration. After plating, the culture is incubated in standard growth condition for 60 hours, after which the cultures are processed for testing the effect of compounds on parasite growth as given below. We have standardized a modified SybrGreen dye based staining protocol (Plouffe D et. al. in Proc Natl Acad Sci, 2008, 105(26), 9059-64) for estimating parasite growth. SybrGreen dye binds to DNA and only the DNA bound dye gives a specific fluorescence emission ([…]) when excited ([…]). Since only the parasites have DNA (as RBCs are devoid of nucleus), the SybrGreen signal is a direct indictor of parasite growth. We have standardized a plate reader based read out assay for quantifying relative parasite growth (or conversely % inhibition of growth) in untreated, standard anti-malarial treated and test molecules treated P. falciparum cultures. 25 μl of 10× staining solution (0.5% Triton X100 & 10× SybrGreen dye in phosphate buffered saline) is added to each sample in 96 well plate, mixed and incubated for 30 min before taking readings. Data obtained is then tabulated to compare parasite growth between untreated, standard anti-malarial treated and compound treated parasite cultures. Compounds showing greater than 80% reduction in parasite growth are selected from this primary screening for carrying out dose response analysis using the respective test molecules from 10 μM to 1 nM. Data from this experiment is used for the calculation of IC50 values for the respective test molecules. Data from the preliminary screen (at 10 μM only) is shown in FIG. 1 and data from the dose response experiment is shown in FIG. 2.

| Compound | pIC50 |
| --- | --- |
| O=C1C(O)=C([C@H]2CC[C@H](c3ccc(Cl)cc3)CC2)C(=O)c2ccccc21 [Atovaquone, reference compound] | 8.15 |
| C1=CC2OC(c3ccccc3)(c3ccccc3)c3ccccc3N2c2ccccc21 (stereo not drawn) | 5.41 |
| CC1=C[C@@H]2O[C@H](c3ccc(Cl)cc3)c3ccccc3N2c2ccccc21 | 5.42 |

Next, values leading:

| pIC50 | Compound |
| --- | --- |
| 5.45 | Cc1cc2c(cc1C)N1c3ccccc3C=C[C@@H]1O[C@@H]2c1ccc(Cl)cc1 |
| 5.58 | O=C(c1ccccc1)C1(c2ccccc2)OC2C=Cc3ccccc3N2c2ccccc21 (stereo not drawn) |
| 5.77 | O=C1C=CC2(C=C1)OC1C=Cc3ccccc3N1c1ccccc12 (stereo not drawn) |
